Data published in paper PMC9147645, “Food-Derived β-Carboline Alkaloids Ameliorate Lipid Droplet Accumulation in Human Hepatocytes” (Pharmaceuticals, 2022).
Like-named read-outs stand apart in the source and are kept apart here.

What was measured:
HepG2 cells = test: Cytotoxicity / lipocytotoxicity assay (CCK-8); assay type: cell-based; conditions: HepG2
Experimental: (§1) HepG2 cells were purchased from the American Type Culture Collection (ATCC) (Manassas, VA, USA). High-glucose DMEM containing 10% heat-inactivated FBS and 1% penicillin–streptomycin was maintained under a humidified atmosphere at 37 °C with 5% CO2, as indicated in the Supplementary Materials. HepG2 cells (1.5 × 10^4/well) in DMEM supplemented with 10% FBS were seeded into a 96-well plate. A cytotoxicity assay was performed according to the manufacturer’s protocol using CCK-8 (Dojindo Molecular Technologies), as indicated in the Supplementary Materials (Materials and Methods). […]
(§2) 2 1.2. Cytotoxicity assay […] HepG2 cells (1.5 × 10^4/well) in DMEM supplemented with 10% FBS were under reduced pressure, and H2O (25 ml) was added. Then the solution was seeded into a 96-well plate. The cytotoxicity assay was done using CCK-8 extracted with AcOEt after adjusted to 9–10 with aq. NaOH solution. The organic (Dojindo Molecular Technologies) according to the manufacturer's protocol. […]
(§3) Compounds 1 and 3. To a stirred soln. Compound 10 (218 mg, 1.00 mmol), 5- Technologies, Rockville, USA) according to the manufacturer ’sinstructions. Cell Acetoxymethylfurfural (1, 168 mg, 1.00 mmol) and Nano CuO (7.955 mg, 0.1 suspension (100 μl/well) was inoculated in a 96-well plate (Iwaki, Japan), and mmol) were added 6 ml of DMF. The mixture was stirred at 90℃ for 16 h. The pH once monolayers were observed, treatments were added (n = 3 per each of the aqueous solution was adjusted to 9–10 with aq NaOH solution after adding treatment). Cells were then pre-incubated with the treatments for 24 h before H O. After extracting the solution with AcOEt, the organic layer was washed with assay to determine cell viability.Absorbance was measured at 450 nm using a 2 plate reader (PerkinElmer-ARVO-MX-ID 10533234, Japan). […]
(§4) [5-(hydroxymethyl)-2-furanyl]-1H-pyrido[3,4-b]indole-3-carboxylic acid (2, CAS culture medium was removed from each dish, and cells were washed Registry Number 896466-77-6); flazine methyl ester acetate (3, CAS Registry and rinsed with 1× PBS. Cells were then fixed for 20 min in 10% formalin and Number 104537-95-3); flazin (4, CAS Registry Number 100041-05-2); washed twice using PBS. Then, Oil Red O dye was added to the dishes and incubated for 20 min. Finally, the dye was removed from each dish and cells 5

[1] = Cytotoxicity / lipocytotoxicity assay (CCK-8); assay type: cell-based; conditions: human, HepG2 cells
Experimental: as §1, §2, §3, §4

[2] = test system: adipose triglyceride lipase (ATGL); test: Gene expression, real-time PCR; assay type: cell-based, human; conditions: HepG2 + 0.25 mM OA, 200 and 400 μM compound, 24 h, normalized to GAPDH
Experimental: (§5) To better understand how the supplementation of compounds 2 and 4 during LDA in HepG2 cells affects lipolysis and lipogenesis, we performed gene expression analysis using real-time PCR under the following conditions. Briefly, HepG2 cells (2.0 × 10^5/well) were seeded in 24-well plates (n = 6 per treatment). After 24 h, the cells were treated with PBS, 0.25 mM OA only, 0.25 mM OA plus 200 and 400 μM compound 2, or 0.25 mM OA plus 200 and 400 μM compound 4. After another 24 h, RNA extraction and complementary DNA synthesis were performed, according to the manufacturer’s instructions and a previous study. The sequences of the primers used are shown in the Supplementary Materials, Table S1: adipose triglyceride lipase (ATGL), diacylglycerol O-acyltransferase 1 (DGAT1), sterol regulatory element-binding protein 1 (SREBP1), fatty acid synthase (FASN), stearoyl-CoA desaturase 1 (SCD1), and glyceraldehyde-3-phosphate dehydrogenase (GAPDH). PCR was performed using a CFX 96 Real-Time PCR Detection System (Bio-Rad Laboratories Inc., Hercules, CA, USA) under the following conditions: 95 °C for 30 s, followed by 40 cycles at 95 °C for 5 s, 60 °C for 5 s, and 72 °C for 10 s. All gene expression levels were analyzed using the ΔΔCt method and normalized to GAPDH. Data were represented as relative expression based on that of the control group.

[3] = test system: fatty acid synthase (FASN); test: Gene expression, real-time PCR; assay type: cell-based, human; conditions: HepG2 + 0.25 mM OA, 200 and 400 μM compound, 24 h, normalized to GAPDH
Experimental: as §5

[4] = test system: sterol regulatory element-binding protein 1 (SREBP1); test: Gene expression, real-time PCR; assay type: cell-based, human; conditions: HepG2 + 0.25 mM OA, 200 and 400 μM compound, 24 h, normalized to GAPDH
Experimental: as §5

[5] = test system: diacylglycerol O-acyltransferase 1 (DGAT1); test: Gene expression, real-time PCR; assay type: cell-based, human; conditions: HepG2 + 0.25 mM OA, 200 and 400 μM compound, 24 h, normalized to GAPDH
Experimental: as §5

[6] = test system: stearoyl-CoA desaturase 1 (SCD1); test: Gene expression, real-time PCR; assay type: cell-based, human; conditions: HepG2 + 0.25 mM OA, 200 and 400 μM compound, 24 h, normalized to GAPDH
Experimental: as §5

[7] = HepG2, DMEM loaded with fatty acid (+OA), read-out: Lipocytotoxicity (LC50), concentration at which 50% of cells died
[8] = HepG2, DMEM without fatty acid (−OA), read-out: Cytotoxicity (CC50), concentration at which 50% of cells died

| Structure (SMILES) | Cytotoxicity (in words) (HepG2 cells) | CC50 at 24 h [1, 7] | CC50 at 24 h [1, 8] | ATGL gene expression [2] | FASN gene expression [3] | SREBP1 gene expression [4] | DGAT1 gene expression [5] | SCD1 gene expression [6] |
| --- | --- | --- | --- | --- | --- | --- | --- | --- |
| O=C(O)C1Cc2c([nH]c3ccccc23)C(c2ccc(CO)o2)N1 (stereo not shown) [Compound 2, 1,2,3,4-tetrahydro-1-(5-(hydroxymethyl)-2-furanyl)-9H-pyrido [3,4-b]indole-3-carboxylic acid] | no cytotoxicity | 484 µM | > 700 µM | upregulated | significantly downregulated | significantly downregulated | no change | did not induce a significant reduction |
| O=C(O)c1cc2c([nH]c3ccccc32)c(-c2ccc(CO)o2)n1 [Compound 4, flazin] | no cytotoxicity | 600 µM | > 700 µM | upregulated | strongly downregulated | strongly downregulated | no change | strongly downregulated |
